The values that follow come from PMC6121530, “Synthesis, Biological Evaluation and Molecular Docking of Novel Indole-Aminoquinazoline Hybrids for Anticancer Properties” (International Journal of Molecular Sciences, 2018).

This experiment has as its target T1, epidermal growth factor receptor tyrosine kinase (EGFR-TK) (Homo sapiens, UniProt P00533).
T1 construct: purified Epidermal Growth Factor Receptor (Sigma-Aldrich)
The experiment is described as follows: ELISA kinase inhibition assay with purified EGFR. The format is biochemical.

Broadly, the IC50 is the concentration that inhibits the measured activity by half. Low values mean inhibition by little substance, high ones a need for much substance.

T1 sequence (P00533 25-1210): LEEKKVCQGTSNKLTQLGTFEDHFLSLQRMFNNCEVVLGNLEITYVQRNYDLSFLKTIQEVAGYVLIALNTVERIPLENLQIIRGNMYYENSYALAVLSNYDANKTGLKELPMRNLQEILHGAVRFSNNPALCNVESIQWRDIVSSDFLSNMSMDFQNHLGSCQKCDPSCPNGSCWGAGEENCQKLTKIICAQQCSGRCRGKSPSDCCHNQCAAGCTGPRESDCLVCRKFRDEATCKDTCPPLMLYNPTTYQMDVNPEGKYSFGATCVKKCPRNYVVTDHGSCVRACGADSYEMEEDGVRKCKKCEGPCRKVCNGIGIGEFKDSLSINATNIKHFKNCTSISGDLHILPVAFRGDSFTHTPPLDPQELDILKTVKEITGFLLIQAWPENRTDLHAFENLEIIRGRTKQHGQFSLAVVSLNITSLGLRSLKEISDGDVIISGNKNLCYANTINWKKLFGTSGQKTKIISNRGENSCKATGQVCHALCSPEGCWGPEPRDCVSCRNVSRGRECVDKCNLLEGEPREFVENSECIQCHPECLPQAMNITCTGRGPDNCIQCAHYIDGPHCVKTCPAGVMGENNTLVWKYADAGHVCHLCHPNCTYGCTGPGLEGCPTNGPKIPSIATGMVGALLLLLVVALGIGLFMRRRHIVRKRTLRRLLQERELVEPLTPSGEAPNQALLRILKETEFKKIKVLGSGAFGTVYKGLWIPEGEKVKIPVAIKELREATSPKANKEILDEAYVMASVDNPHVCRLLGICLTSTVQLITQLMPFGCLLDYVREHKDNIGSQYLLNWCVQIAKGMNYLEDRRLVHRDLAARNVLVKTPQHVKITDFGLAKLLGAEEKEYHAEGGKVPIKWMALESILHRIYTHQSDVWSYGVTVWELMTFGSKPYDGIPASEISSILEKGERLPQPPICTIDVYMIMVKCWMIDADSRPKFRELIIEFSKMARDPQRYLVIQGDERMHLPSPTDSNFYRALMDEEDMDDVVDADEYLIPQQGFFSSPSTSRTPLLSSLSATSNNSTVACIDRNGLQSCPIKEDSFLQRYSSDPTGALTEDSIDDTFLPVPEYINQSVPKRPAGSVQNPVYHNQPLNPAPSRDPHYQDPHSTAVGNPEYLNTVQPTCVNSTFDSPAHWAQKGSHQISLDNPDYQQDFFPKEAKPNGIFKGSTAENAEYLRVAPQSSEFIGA

Turning to `Fc1ccc(-c2nc(Nc3cc(Br)cc4cc(-c5ccc(F)cc5)[nH]c34)c3ccccc3n2)cc1` [4f, N-(5-Bromo-2-(4-fluorophenyl)-1H-indol-7-yl)-2-(4-fluorophenyl)quinazolin-4-amine], half-maximal inhibition (IC50) required 52.5 nM.
